Measured values from patent US11033539B2, “Compounds of formulas (VII), (VIII), (IX), (XI), (XII), (XIII), and (XIV) as muscarinic receptor 4(M4) antagonists for treating neurological diseases” (Neurocrine Biosciences, Inc., priority 2015, dated 2021).

How the values were obtained:
[1] = target: human M2 receptor (Homo sapiens (Human), UniProt P08172); test: Radioligand (tritiated N-methylscopolamine) binding assay, M2; conditions: CHO cell membranes expressing human M2; 1.5 nM tritiated N-methylscopolamine; 90 min, 37° C.; read-out: Ki against M2 receptor (Table 21, M2)
Chain of human M2 receptor (P08172 whole entry): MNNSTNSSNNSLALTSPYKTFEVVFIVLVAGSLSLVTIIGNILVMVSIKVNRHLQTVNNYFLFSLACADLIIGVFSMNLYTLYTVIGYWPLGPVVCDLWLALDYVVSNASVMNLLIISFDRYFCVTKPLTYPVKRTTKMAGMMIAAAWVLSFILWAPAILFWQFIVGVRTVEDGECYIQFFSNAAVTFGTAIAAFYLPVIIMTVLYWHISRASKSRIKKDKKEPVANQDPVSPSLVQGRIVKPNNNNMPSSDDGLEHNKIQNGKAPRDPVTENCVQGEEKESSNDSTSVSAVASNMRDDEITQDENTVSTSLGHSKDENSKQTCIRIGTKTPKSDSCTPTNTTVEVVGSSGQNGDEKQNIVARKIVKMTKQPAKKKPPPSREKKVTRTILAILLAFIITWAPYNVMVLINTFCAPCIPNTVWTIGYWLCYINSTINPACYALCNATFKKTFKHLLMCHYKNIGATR
Protocol: (§1) Binding affinity (Ki) of compounds was measured by inhibition of radioligand binding to membranes from CHO cells expressing human M1, M2, M3, M4 and M5 receptors. Membranes were prepared by nitrogen cavitation and differential centrifugation as previously described (Hoare et al., Mol. Pharmacol. 2003 March; 63(3): 751-65). The radioligand employed was tritiated N-methylscopolamine, used at a concentration of 1.5 nM. A dose-response of twelve concentrations of compound was used, ranging from 10 μM to […]. The assay buffer was 50 mM HEPES, 100 mM NaCl, 5 mM MgCl2, 1 mM ethylenediaminetetraacetic acid, pH-adjusted to pH 7.4. Membranes, radioligand and compound were incubated together for 90 minutes at 37° C., in a total volume of 150 μl in a 96-well plate. Receptor-bound radioligand was then collected by harvesting the assay over glass fiber filters pretreated with polyethylenimine to trap the cell membranes, using rapid vacuum filtration. Harvesting and radioactivity counting was conducted as previously described (see, e.g., Hoare et al., Mol. Pharmacol. 2003 63(3):751-65); Erratum at Mol. Pharmacol. 2005 July; 68(1): 260).

[2] = target: human M3 receptor (Homo sapiens (Human), UniProt P20309); test: Radioligand (tritiated N-methylscopolamine) binding assay, M3; conditions: CHO cell membranes expressing human M3; 1.5 nM tritiated N-methylscopolamine; 90 min, 37° C.; read-out: Ki against M3 receptor (Table 21, M3)
Chain of human M3 receptor (P20309 whole entry): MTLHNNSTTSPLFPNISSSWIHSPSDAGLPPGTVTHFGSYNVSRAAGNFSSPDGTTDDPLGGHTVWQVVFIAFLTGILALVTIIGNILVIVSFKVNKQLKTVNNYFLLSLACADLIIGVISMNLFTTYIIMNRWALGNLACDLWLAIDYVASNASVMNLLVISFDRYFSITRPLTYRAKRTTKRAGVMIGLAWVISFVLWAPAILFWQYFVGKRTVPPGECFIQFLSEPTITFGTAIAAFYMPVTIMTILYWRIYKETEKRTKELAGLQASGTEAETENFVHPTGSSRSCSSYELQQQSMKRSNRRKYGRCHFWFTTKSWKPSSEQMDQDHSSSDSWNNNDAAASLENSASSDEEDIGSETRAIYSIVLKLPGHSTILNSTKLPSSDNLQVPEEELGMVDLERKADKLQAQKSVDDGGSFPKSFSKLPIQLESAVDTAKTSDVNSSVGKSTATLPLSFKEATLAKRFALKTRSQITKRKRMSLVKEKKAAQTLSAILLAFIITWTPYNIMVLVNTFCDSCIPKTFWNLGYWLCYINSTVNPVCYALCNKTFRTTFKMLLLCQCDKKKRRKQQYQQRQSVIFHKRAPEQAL
Protocol: as §1

[3] = target: human M4 receptor (Homo sapiens (Human), UniProt P08173); test: Radioligand (tritiated N-methylscopolamine) binding assay, M4; conditions: Ki against the M4 receptor; membranes from CHO cells expressing human M4; tritiated N-methylscopolamine 1.5 nM; read-out: Ki
Chain of human M4 receptor (P08173 whole entry): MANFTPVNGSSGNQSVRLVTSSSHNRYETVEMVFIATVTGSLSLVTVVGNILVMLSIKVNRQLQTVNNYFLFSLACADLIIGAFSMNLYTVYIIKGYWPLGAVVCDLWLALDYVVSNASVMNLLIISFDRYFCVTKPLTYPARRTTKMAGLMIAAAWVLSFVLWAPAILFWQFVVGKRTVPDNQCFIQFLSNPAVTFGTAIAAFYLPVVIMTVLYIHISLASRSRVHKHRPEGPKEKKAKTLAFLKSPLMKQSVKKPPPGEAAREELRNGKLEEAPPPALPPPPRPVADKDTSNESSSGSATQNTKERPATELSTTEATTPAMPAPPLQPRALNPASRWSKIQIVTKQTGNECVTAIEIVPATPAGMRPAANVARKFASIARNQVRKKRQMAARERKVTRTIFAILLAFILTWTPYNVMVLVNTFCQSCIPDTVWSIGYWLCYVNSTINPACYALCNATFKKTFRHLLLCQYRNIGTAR
Outline: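 CHO membranes; 1.5 nM radioligand; 12-point compound dose-response, 10 μM to […]; HEPES/NaCl/MgCl2/EDTA buffer pH 7.4; 90 min, 37 °C. PEI-treated glass fiber filtration, radioactivity counting. Ki from inhibition of binding.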

[4] = target: human M1 receptor (Homo sapiens (Human), UniProt P11229); test: Radioligand (tritiated N-methylscopolamine) binding assay, M1; conditions: CHO cell membranes expressing human M1; 1.5 nM tritiated N-methylscopolamine; 90 min, 37° C.; read-out: Ki against M1 receptor (Table 21, M1)
Chain of human M1 receptor (P11229 whole entry): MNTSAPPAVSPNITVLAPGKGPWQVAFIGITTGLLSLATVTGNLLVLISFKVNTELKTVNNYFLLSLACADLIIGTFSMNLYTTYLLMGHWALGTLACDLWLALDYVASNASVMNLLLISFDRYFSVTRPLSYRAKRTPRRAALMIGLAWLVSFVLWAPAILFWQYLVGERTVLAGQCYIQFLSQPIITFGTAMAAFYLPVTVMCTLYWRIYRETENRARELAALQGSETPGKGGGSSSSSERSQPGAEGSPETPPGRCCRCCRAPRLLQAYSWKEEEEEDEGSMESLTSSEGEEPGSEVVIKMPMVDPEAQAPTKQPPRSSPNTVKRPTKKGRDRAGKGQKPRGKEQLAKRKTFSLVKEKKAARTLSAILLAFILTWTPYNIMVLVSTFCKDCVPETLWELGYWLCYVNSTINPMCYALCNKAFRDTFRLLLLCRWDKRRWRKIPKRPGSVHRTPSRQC
Protocol: as §1

[5] = target: human M5 receptor (Homo sapiens (Human), UniProt P08912); test: Radioligand (tritiated N-methylscopolamine) binding assay, M5; conditions: CHO cell membranes expressing human M5; 1.5 nM tritiated N-methylscopolamine; 90 min, 37° C.; read-out: Ki against M5 receptor (Table 21, M5)
Chain of human M5 receptor (P08912 whole entry): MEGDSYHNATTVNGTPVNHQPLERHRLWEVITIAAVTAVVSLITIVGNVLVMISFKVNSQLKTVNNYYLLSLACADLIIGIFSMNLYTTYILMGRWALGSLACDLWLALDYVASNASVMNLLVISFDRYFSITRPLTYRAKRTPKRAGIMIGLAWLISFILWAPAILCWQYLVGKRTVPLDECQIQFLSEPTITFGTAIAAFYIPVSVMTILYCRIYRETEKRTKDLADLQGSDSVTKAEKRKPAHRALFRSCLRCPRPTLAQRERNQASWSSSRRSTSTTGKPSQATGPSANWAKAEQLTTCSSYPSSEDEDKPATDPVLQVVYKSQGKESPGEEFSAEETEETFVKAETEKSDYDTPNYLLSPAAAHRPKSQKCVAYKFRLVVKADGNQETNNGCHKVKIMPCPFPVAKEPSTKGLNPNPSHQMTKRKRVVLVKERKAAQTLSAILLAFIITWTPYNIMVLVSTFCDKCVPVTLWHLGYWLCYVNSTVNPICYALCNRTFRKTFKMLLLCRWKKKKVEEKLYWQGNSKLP
Protocol: as §1

Ki [1] [nM]	Ki [2] [nM]	Ki [3] [nM]	Ki [4] [nM]	Ki [5] [nM]	Compound
10 to 100	100 to 1000	< 10	100 to 1000	100 to 1000	C[C@@H]1CN(c2ccc(Cl)c(F)c2)CCN1C(=O)NCCC1CCN(Cc2ccccc2)CC1 [22-14]
< 10	100 to 1000	< 10	100 to 1000	100 to 1000	C[C@@H]1CN(c2cnc(C(F)(F)F)cn2)C[C@H](C)N1C(=O)NCCC1CCN(Cc2ccccc2)CC1 [22-23]
10 to 100	100 to 1000	< 10	100 to 1000	100 to 1000	C[C@@H]1CN(c2cc(F)c(Cl)c(F)c2)CCN1C(=O)NCCC1CCN(Cc2ccccc2)CC1 [22-13]
10 to 100	> 1000	< 10	100 to 1000	> 1000	C[C@@H]1CN(c2cnc(Cl)c(F)c2)C[C@H](C)N1C(=O)NCCC1CCN(Cc2ccccc2)CC1 [22-8]
10 to 100	> 1000	< 10	100 to 1000	> 1000	C[C@@H]1CN(c2cnc(C(F)(F)F)cn2)CCN1C(=O)NCCC1CCN(Cc2ccccc2)CC1 [22-22]
10 to 100	10 to 100	< 10	10 to 100	100 to 1000	C[C@H]1CN(c2ncc(C(F)(F)F)cn2)CCC1C(=O)NCCC1CCN(Cc2ccccc2)CC1 (stereo partly drawn) [20-2, (3R)-N-[2-(1-benzylpiperidin-4-yl)ethyl]-3-methyl-1-[5-(trifluoromethyl)pyrimidin-2-yl]piperidine-4-carboxamide]

More lines, now with the values behind:

Compound	Ki [1] [nM]	Ki [2] [nM]	Ki [3] [nM]	Ki [4] [nM]	Ki [5] [nM]
C[C@@H]1CN(c2cc(F)c(F)c(F)c2)CCN1C(=O)NCCC1CCN(Cc2cccs2)CC1 [6-26, (2R)-2-methyl-N-{2-[1-(thiophen-2-ylmethyl)piperidin-4-yl]ethyl}-4-(3,4,5-trifluorophenyl)piperazine-1-carboxamide]	10 to 100	> 1000	< 10	100 to 1000	> 1000
O=C(NCCC1CCN(Cc2ccccc2)CC1)c1ccc(-c2ccc(OC(F)(F)F)cc2)cc1 [9-7, N-[2-(1-benzylpiperidin-4-yl)ethyl]-4-[4-(trifluoromethoxy)phenyl]benzamide]	100 to 1000	> 1000	< 10	100 to 1000	> 1000
Cc1c(C(=O)NCCC2CCN(Cc3ccccc3)CC2)cnc2cc(-c3cccc(OC(F)(F)F)c3)nn12 [18-16]	100 to 1000	> 1000	< 10	> 1000	> 1000
N#Cc1cc(N2CCC(C(=O)NCCC3(O)CCN(Cc4ccccc4)CC3)CC2)ccc1OC(F)(F)F [10-20, N-[2-(1-benzyl-4-hydroxypiperidin-4-yl)ethyl]-1-[3-cyano-4-(trifluoromethoxy)phenyl]piperidine-4-carboxamide]	100 to 1000	> 1000	< 10	> 1000	> 1000
C[C@@H]1CN(c2ccc(C(F)(F)F)cc2)CCN1C(=O)NCCC1CCN(Cc2ccccc2)CC1 [4-5, (2R)-N-[2-(1-benzylpiperidin-4-yl)ethyl]-2-methyl-4-[4-(trifluoromethyl)phenyl]piperazine-1-carboxamide]	10 to 100	> 1000	< 10	100 to 1000	> 1000
C[C@@H]1CN(c2cc(F)c(F)c(F)c2)CCN1C(=O)NCCC1CCN(Cc2ccc(F)cc2)CC1 [6-4, (2R)-N-(2-{1-[(4-fluorophenyl)methyl]piperidin-4-yl}ethyl)-2-methyl-4-(3,4,5-trifluorophenyl)piperazine-1-carboxamide]	100 to 1000	> 1000	< 10	100 to 1000	> 1000
C[C@H]1CN(c2ccc(C(F)(F)F)cn2)CCC1C(=O)NCCC1CCN(Cc2ccccc2)CC1 (stereo partly drawn) [10-80, (3R)-N-[2-(1-benzylpiperidin-4-yl)ethyl]-3-methyl-1-[5-(trifluoromethyl)pyridin-2-yl]piperidine-4-carboxamide]	10 to 100	100 to 1000	< 10	10 to 100	100 to 1000
O=C(NCCC1CCN(Cc2ccccc2)CC1)C1CCN(c2cc(F)c(F)c(F)c2)CC1 [10-7, N-[2-(1-benzylpiperidin-4-yl)ethyl]-1-(3,4,5-trifluorophenyl)piperidine-4-carboxamide]	100 to 1000	> 1000	< 10	> 1000	> 1000
C[C@@H]1CN(c2ccc(C(F)(F)F)cc2F)CCN1C(=O)NCCC1CCN(Cc2ccccc2)CC1 [4-73, (2R)-N-[2-(1-benzylpiperidin-4-yl)ethyl]-4-[2-fluoro-4-(trifluoromethyl)phenyl]-2-methylpiperazine-1-carboxamide]	10 to 100	100 to 1000	< 10	100 to 1000	> 1000
O=C(NCC(O)C1CCN(Cc2ccccc2)CC1)C1CCN(c2ccc(OC(F)(F)F)cc2)CC1 (centres unmarked) [9-8, N-[2-(1-benzylpiperidin-4-yl)-2-hydroxyethyl]-1-[4-(trifluoromethoxy)phenyl]piperidine-4-carboxamide]	100 to 1000	> 1000	< 10	> 1000	> 1000
C[C@@H]1CN(c2ccc(OC(F)(F)F)c(C#N)c2)CCN1C(=O)NCCC1CCN(Cc2ccccc2)CC1 [3-1, (2R)-N-[2-(1-benzylpiperidin-4-yl)ethyl]-4-[3-cyano-4-(trifluoromethoxy)phenyl]-2-methylpiperazine-1-carboxamide]	10 to 100	> 1000	< 10	100 to 1000	> 1000
N#Cc1ccc(N2CCC(C(=O)NCCC3CCN(Cc4ccccc4)CC3)CC2)cc1OC(F)(F)F [10-13, N-[2-(1-benzylpiperidin-4-yl)ethyl]-1-[4-cyano-3-(trifluoromethoxy)phenyl]piperidine-4-carboxamide]	100 to 1000	> 1000	< 10	100 to 1000	> 1000
O=C(NCCC1CCN(Cc2ccccc2)CC1)C1CCN(c2ccc3c(c2)OC(F)(F)O3)CC1 [10-5, N-[2-(1-benzylpiperidin-4-yl)ethyl]-1-(2,2-difluoro-2H-1,3-benzodioxol-5-yl)piperidine-4-carboxamide]	10 to 100	> 1000	< 10	100 to 1000	> 1000
C[C@@H]1CN(c2ncc(C#N)cn2)C[C@H](C)N1C(=O)NCCC1CCN(Cc2ccc(F)cc2)CC1 [6-48, (2R,6S)-4-(5-cyanopyrimidin-2-yl)-N-(2-{1-[(4-fluorophenyl)methyl]-piperidin-4-yl}ethyl)-2,6-dimethylpiperazine-1-carboxamide]	10 to 100	> 1000	< 10	> 1000	> 1000
C[C@@H]1CN(c2ncc(C#N)cn2)C[C@@H](C)N1C(=O)NCCC1CCN(Cc2ccccc2)CC1 [26-2]	100 to 1000	> 1000	< 10	> 1000	> 1000
C[C@@H]1CN(c2ncc(C#N)cn2)C[C@H](C)N1C(=O)NCCC1CCN(CC[Si](C)(C)C)CC1 [21-7]	< 10	10 to 100	< 10	10 to 100	100 to 1000
COc1cc(C#N)cc(N2CCC(C(=O)NCCC3CCN(Cc4ccccc4)CC3)CC2)c1 [10-54, N-[2-(1-benzylpiperidin-4-yl)ethyl]-1-(3-cyano-5-methoxyphenyl)piperidine-4-carboxamide]	10 to 100	> 1000	< 10	100 to 1000	> 1000
Cc1nc(N2CCN(C(=O)NCCC3CCN(Cc4ccccc4)CC3)[C@H](C)C2)ccc1F [4-19, (2R)-N-[2-(1-benzylpiperidin-4-yl)ethyl]-4-(5-fluoro-6-methylpyridin-2-yl)-2-methylpiperazine-1-carboxamide]	100 to 1000	> 1000	< 10	100 to 1000	> 1000
C[C@@H]1CN(c2nc(Cl)cc(C#N)n2)CCN1C(=O)NCCC1CCN(Cc2ccccc2)CC1 [5-5, (2R)-N-[2-(1-benzylpiperidin-4-yl)ethyl]-4-(4-chloro-6-cyanopyrimidin-2-yl)-2-methylpiperazine-1-carboxamide]	100 to 1000	> 1000	< 10	100 to 1000	> 1000
